From ChEMBL document CHEMBL5150074, “Structure-Based Design of a Dual-Targeted Covalent Inhibitor Against Papain-like and Main Proteases of SARS-CoV-2” (J Med Chem, 2022)
pIC50, pKi: −log10 of the molar value. Activity calls are given as the source filed them. The calls are words filed in the database; no cut-off is given here.

Experiments:
[1] = biological target: T1, Replicase polyprotein 1ab (Severe acute respiratory syndrome coronavirus 2, UniProt P0DTD1); experiment: Inhibition of SARS-CoV2 main protease
[2] = Acute toxicity in Sprague-Dawley rat assessed as cellular swelling in hepatocytes at 300 mg/kg, po administered via gavage for 4 weeks followed by recovery for 4 weeks; assay type: organism-based; details: in vivo, 1344 h, time 8 weeks
[3] = biological target: Replicase polyprotein 1ab (Severe acute respiratory syndrome coronavirus 2) (UniProt P0DTD1); experiment: Binding affinity to SARS-CoV-2 MPro expressed in Escherichia coli BL21(DE3) assessed as mass shift at 15 uM incubated for 4 hrs by mass spectrometry analysis
[4] = Acute toxicity in overnight fasted Kunming mouse assessed as animal death at 1050 mg/kg, iv measured after 15 days; assay type: organism-based; details: in vivo, 360 h, time 15 day
SARS-CoV-2 [5] = experiment: Antiviral activity against SARS-CoV-2 infected in Vero E6 cells assessed as reduction in viral RdRP RNA levels at 15 uM measured after 48 hrs by qRT-PCR analysis; assay type: functional, Severe acute respiratory syndrome coronavirus 2; design: scale not given: the % may be the effect or the level left
[6] = biological target: Serine/threonine-protein kinase PAK 2 (Homo sapiens) (UniProt Q13177); experiment: Inhibition of human PAK2 at 1 uM by DiscoverX KINOMEscan assay relative to control
Serine/threonine-protein kinase PAK 2 (Homo sapiens), sequence (Q13177 whole entry): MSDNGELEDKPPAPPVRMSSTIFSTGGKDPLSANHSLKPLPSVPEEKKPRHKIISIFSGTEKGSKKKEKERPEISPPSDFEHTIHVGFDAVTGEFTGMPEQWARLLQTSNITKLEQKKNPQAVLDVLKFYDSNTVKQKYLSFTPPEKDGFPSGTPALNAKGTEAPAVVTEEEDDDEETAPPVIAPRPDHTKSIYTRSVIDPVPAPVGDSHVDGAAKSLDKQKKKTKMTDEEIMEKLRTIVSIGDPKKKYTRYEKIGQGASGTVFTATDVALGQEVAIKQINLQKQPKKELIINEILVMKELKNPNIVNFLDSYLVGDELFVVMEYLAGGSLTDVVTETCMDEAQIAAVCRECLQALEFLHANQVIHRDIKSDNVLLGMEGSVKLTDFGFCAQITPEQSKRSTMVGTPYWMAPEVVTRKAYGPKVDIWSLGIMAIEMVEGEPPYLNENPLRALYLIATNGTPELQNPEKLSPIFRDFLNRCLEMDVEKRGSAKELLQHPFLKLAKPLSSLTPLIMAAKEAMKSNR

[7] = biological target: T1, Replicase polyprotein 1ab; experiment: Inhibition of SARS-CoV-2 PLpro expressed in Escherichia coli BL21(DE3) using CBZ-RLRGG-AMC as substrate assessed as inhibition constant measured for 30 mins by fluorimetry based microplate reader analysis
[8] = biological target: Replicase polyprotein 1ab (Severe acute respiratory syndrome coronavirus 2) (UniProt P0DTD1); experiment: Inhibition of SARS-CoV-2 MPro expressed in Escherichia coli BL21(DE3) using Dabcyl-KLSAVLQSGERKM-Edans as substrate assessed as inactivation constant measured for 30 mins by fluorimetry based microplate reader analysis
[9] = biological target: Replicase polyprotein 1ab (Severe acute respiratory syndrome coronavirus 2) (UniProt P0DTD1); experiment: Inhibition of SARS-CoV-2 MPro expressed in Escherichia coli BL21(DE3) using Dabcyl-KLSAVLQSGERKM-Edans as substrate assessed as Kinact/Ki measured for 30 mins by fluorimetry based microplate reader analysis
[10] = biological target: Serine/threonine-protein kinase pim-1 (Homo sapiens) (UniProt P11309); experiment: Inhibition of human PIM1 at 1 uM by DiscoverX KINOMEscan assay relative to control
Serine/threonine-protein kinase pim-1 (Homo sapiens), sequence (P11309 whole entry, looked up): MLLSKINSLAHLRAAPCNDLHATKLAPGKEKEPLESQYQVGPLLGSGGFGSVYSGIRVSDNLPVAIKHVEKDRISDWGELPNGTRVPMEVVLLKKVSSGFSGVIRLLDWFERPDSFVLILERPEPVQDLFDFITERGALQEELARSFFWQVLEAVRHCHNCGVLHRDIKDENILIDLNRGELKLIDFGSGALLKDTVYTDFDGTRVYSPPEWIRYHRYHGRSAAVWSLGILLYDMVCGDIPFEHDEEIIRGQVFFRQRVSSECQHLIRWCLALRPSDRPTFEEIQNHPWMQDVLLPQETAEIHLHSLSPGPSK

[11] = biological target: Replicase polyprotein 1ab (Severe acute respiratory syndrome coronavirus 2) (UniProt P0DTD1); experiment: Binding affinity to SARS-CoV-2 PLpro expressed in Escherichia coli BL21(DE3) assessed as mass shift at 30 uM incubated for 4 hrs by mass spectrometry analysis
[12] = Acute toxicity in overnight fasted Kunming mouse assessed as toxic signs at 1050 mg/kg, iv measured after 15 days; assay type: organism-based; details: in vivo, 360 h, time 15 day
[13] = Acute toxicity in iv dosed overnight fasted Kunming mouse assessed as minimum lethal dose measured after 15 days; assay type: organism-based; details: in vivo, 360 h, time 15 day
[14] = Acute toxicity in overnight fasted Kunming mouse assessed as reduction in body weight at 1049 to 4000 mg/kg, iv measured after 15 days; assay type: organism-based; details: in vivo, 360 h, dose 1049-4000 mg/kg, time 15 day
[15] = Acute toxicity in Sprague-Dawley rat assessed as effect on food consumption at upto 300 mg/kg, po administered via gavage for 4 weeks followed by recovery for 4 weeks; assay type: organism-based; details: in vivo, 1344 h, time 8 weeks
[16] = biological target: T1, Replicase polyprotein 1ab; experiment: Inhibition of SARS-CoV-2 MPro expressed in Escherichia coli BL21(DE3) using Dabcyl-KLSAVLQSGERKM-Edans as substrate assessed as inhibition constant measured for 30 mins by fluorimetry based microplate reader analysis
[17] = Solubility of compound in saline at higher dose; assay type: physicochemical; details: buffer
Procathepsin L [18] = biological target: T2, Procathepsin L (Homo sapiens, UniProt P07711); experiment: Inhibition of human Cathepsin L using Z-Leu-Arg-AMC as substrate incubated for 30 mins followed by substrate addition by fluorescence based analysis
Target sequence in this assay (P07711 whole entry): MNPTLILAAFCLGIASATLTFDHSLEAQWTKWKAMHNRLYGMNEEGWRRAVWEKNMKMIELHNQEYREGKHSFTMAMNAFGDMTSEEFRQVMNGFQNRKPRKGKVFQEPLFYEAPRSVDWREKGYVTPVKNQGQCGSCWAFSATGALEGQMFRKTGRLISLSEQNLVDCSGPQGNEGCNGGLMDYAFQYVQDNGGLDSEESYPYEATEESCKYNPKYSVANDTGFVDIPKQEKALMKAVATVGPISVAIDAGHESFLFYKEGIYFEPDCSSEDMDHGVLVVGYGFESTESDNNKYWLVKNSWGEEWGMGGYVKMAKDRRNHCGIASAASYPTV

[19] = Toxicity in overnight fasted Kunming mouse assessed as animal death at 400 mg/kg, iv measured after 15 days; assay type: organism-based; details: in vivo, 360 h, time 15 day
SARS-CoV-2 [20] = experiment: Antiviral activity against SARS-CoV-2 infected in Vero E6 cells assessed as reduction in viral nucleoprotein levels at 5 uM pretreated with Vero E6 cells for 1 hr followed by viral infection and further incubated for 1 followed by compound washout and measured after 48 hrs by Hoechst 33258 staining based fluorescence microscopy analysis; assay type: functional, organism-based; details: Severe acute respiratory syndrome coronavirus 2, time 2.0 hrs
[21] = biological target: Replicase polyprotein 1ab (Severe acute respiratory syndrome coronavirus 2) (UniProt P0DTD1); experiment: Covalent binding affinity to Cys145 residue of SARS-CoV-2 MPro expressed in Escherichia coli BL21(DE3) assessed as trypsin digestion mediated mass shift by mass spectrometry analysis
[22] = Acute toxicity in iv dosed overnight fasted Kunming mouse assessed as maximum tolerated dose measured after 15 days; assay type: organism-based; details: in vivo, time 15 day
[23] = biological target: T1, Replicase polyprotein 1ab; experiment: Inhibition of SARS-CoV-2 PLpro expressed in Escherichia coli BL21(DE3) using CBZ-RLRGG-AMC as substrate incubated for 30 mins followed by substrate addition by FRET assay
[24] = biological target: Replicase polyprotein 1ab (Severe acute respiratory syndrome coronavirus 2) (UniProt P0DTD1); experiment: Covalent binding affinity to Cys111 residue of SARS-CoV-2 PLpro expressed in Escherichia coli BL21(DE3) assessed as mass shift at 3 to 15 uM incubated for 4 hrs followed by trypsin digestion by mass spectrometry analysis; details: dose 3-15 µM
[25] = biological target: Replicase polyprotein 1ab (Severe acute respiratory syndrome coronavirus 2) (UniProt P0DTD1); experiment: Inhibition of SARS-CoV-2 PLpro expressed in Escherichia coli BL21(DE3) using CBZ-RLRGG-AMC as substrate assessed as Kinact/Ki measured for 30 mins by fluorimetry based microplate reader analysis
[26] = biological target: Replicase polyprotein 1ab (Severe acute respiratory syndrome coronavirus 2) (UniProt P0DTD1); experiment: Inhibition of SARS-CoV-2 PLpro expressed in Escherichia coli BL21(DE3) using CBZ-RLRGG-AMC as substrate assessed as inactivation constant measured for 30 mins by fluorimetry based microplate reader analysis
SARS-CoV-2 [27] = experiment: Antiviral activity against SARS-CoV-2 infected in Vero E6 cells assessed as reduction in viral nucleoprotein expression measured after 48 hrs by qRT-PCR analysis; assay type: functional, organism-based; details: Severe acute respiratory syndrome coronavirus 2, Vero C1008, 48 h
[28] = Drug metabolism in normal saline assessed as conversion of closed form to open form by measuring rate constant at equilibrium at 2 mg/ml measured at 5 hrs by RP-HPLC analysis; assay type: ADME; details: buffer
[29] = Acute toxicity in overnight fasted Kunming mouse assessed as signs of abnormality at 1310 mg/kg, iv measured after 15 days; assay type: organism-based; details: in vivo, 360 h, time 15 day
Vero C1008 = experiment: Cytotoxicity against African green monkey Vero E6 cells infected with SARS-CoV-2 assessed as reduction in cell viability at 15 uM measured after 48 hrs by CCK-8 assay; assay type: toxicity, cell-based; details: chlorocebus sabaeus, vero c1008, 48 h
[30] = Acute toxicity in Sprague-Dawley rat assessed as cellular swelling in hepatocytes at 300 mg/kg, po administered via gavage for 4 weeks; assay type: organism-based; details: in vivo, 672 h
[31] = Acute toxicity in Sprague-Dawley rat assessed as reduction in body weight at upto 300 mg/kg, po administered via gavage for 4 weeks followed by recovery for 4 weeks; assay type: organism-based; details: in vivo, 1344 h, time 8 weeks
[32] = biological target: Replicase polyprotein 1ab (Severe acute respiratory syndrome coronavirus 2) (UniProt P0DTD1); experiment: Inhibition of SARS-CoV-2 MPro expressed in Escherichia coli BL21(DE3) using Dabcyl-KLSAVLQSGERKM-Edans as substrate at 5 uM incubated for 30 mins followed by substrate addition by FRET assay
Procathepsin L [33] = biological target: T2, Procathepsin L; experiment: Irreversible inhibition of human Cathepsin L using Z-Leu-Arg-AMC as substrate at 300 nM incubated for 5 hrs followed by 100 fold dilution and incubated for 5 min and further incubated with substrate by fluorescence based analysis; details: time 305.0 min
Target sequence in this assay (P07711 114-333 limits assumed): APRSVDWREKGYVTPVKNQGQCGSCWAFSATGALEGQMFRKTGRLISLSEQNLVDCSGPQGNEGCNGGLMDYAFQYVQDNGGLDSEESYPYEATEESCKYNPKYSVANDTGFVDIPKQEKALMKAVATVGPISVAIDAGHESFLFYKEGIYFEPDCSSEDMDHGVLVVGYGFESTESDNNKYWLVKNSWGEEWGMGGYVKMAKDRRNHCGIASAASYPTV

[34] = biological target: Replicase polyprotein 1ab (Severe acute respiratory syndrome coronavirus 2) (UniProt P0DTD1); experiment: Inhibition of SARS-CoV-2 PLpro expressed in Escherichia coli BL21(DE3) using CBZ-RLRGG-AMC as substrate at 5 uM incubated for 30 mins followed by substrate addition by FRET assay
[35] = biological target: T1, Replicase polyprotein 1ab; experiment: Inhibition of SARS-CoV-2 MPro expressed in Escherichia coli BL21(DE3) using Dabcyl-KLSAVLQSGERKM-Edans as substrate incubated for 30 mins followed by substrate addition by FRET assay
Cathepsin B [36] = biological target: T3, Cathepsin B (Homo sapiens, UniProt P07858); experiment: Inhibition of His-tagged recombinant human Cathepsin B expressed in HEK293 cells using Z-Leu-Arg-AMC as substrate incubated for 30 mins followed by substrate addition by fluorescence based analysis
Cathepsin B [37] = biological target: T3, Cathepsin B; experiment: Reversible inhibition of His-tagged recombinant human Cathepsin B expressed in HEK293 cells using Z-Leu-Arg-AMC as substrate at 120 nM incubated for 2.5 hrs followed by 100 fold dilution and incubated for 5 min and further incubated with substrate by fluorescence based analysis; details: time 155.0 min
[38] = biological target: T1, Replicase polyprotein 1ab; experiment: Inhibition of SARS-CoV-2 PLpro

## CC(C)C[C@H](NC(=O)[C@@H](NC(=O)OCc1ccccc1)C(C)C)C(=O)N[C@@H](C[C@@H]1CCNC1=O)C(=O)c1nc2ccccc2s1
[1]
  pKi: 7.84

## Cl.O=C1C=C(Nc2ccccc2N2CCNCC2)C2=NS(=O)(=O)c3cccc1c32
[2]
  Activity: Non-Toxic
[3]
  Activity: 392 Da
[4]
  Activity: Non-Toxic
SARS-CoV-2 [5]
  Activity: 99.9%
[6]
  inhibition: 10%
[7]
  pKi: 4.80
[8]
  Kinact: 0.0048 s⁻¹
[9]
  Ratio: 710 M⁻¹ s⁻¹
[10]
  inhibition: 35%
[11]
  Activity: 410 Da
[12]
  Activity: Non-Toxic
[13]
  MLC: 1300 mg/kg
[14]
  Activity: Non-Toxic
[15]
  Activity: Non-Toxic
[16]
  pKi: 5.15
[17]
  solubility: Insoluble
Procathepsin L [18]
  pIC50: 5.66
[19]
  Activity: Non-Toxic
SARS-CoV-2 [20]
  Activity: Active
[21]
  Activity: Active
[22]
  MTD at 360 h: 1000 mg/kg
[23]
  pIC50: 6.00
[24]
  Activity: Active
[25]
  Ratio: 500 M⁻¹ s⁻¹
[26]
  Kinact: 0.0081 s⁻¹
SARS-CoV-2 [27]
  pIC50: 5.41
[28]
  Ke: 0.012 min⁻¹
[29]
  Activity: Non-Toxic
Vero C1008
  Activity: Non-Toxic
[30]
  Activity: Toxic
[31]
  Activity: Non-Toxic
[32]
  inhibition: Active
Procathepsin L [33]
  inhibition: Active
[34]
  inhibition: Active
[35]
  pIC50: 6.92
Cathepsin B [36]
  pIC50: 5.06
Cathepsin B [37]
  inhibition: Active

## COC(=O)/C=C/C(=O)NNC(=O)/C=C/c1ccccc1C(=O)N[C@H](C)c1cccc2ccccc12
[38]
  pIC50: 7.03

## CNS(=O)(=O)c1cccc2c1C(=O)C(Nc1ccccc1)=CC2=O
[34]
  inhibition: Active

## CC1=NC2C(=O)C(Nc3ccc(C)cc3)=CC(=O)C2S1 (stereo unspecified)
[38]
  pIC50: 6.41
